Among the data in the OligoGym collection are 3 h FOB score values, retold here.

HELM strings list units from the 5' end as sugar, base in round brackets, then linkage (d deoxyribose, r ribose, m 2'-O-methyl, p phosphodiester). Strings are as the collection lists them; they lack the last nucleoside at the 3' end of the tested compound. [moe] = 2'-O-(2-methoxyethyl) (MOE); [sp] = phosphorothioate linkage; [m5C] = 5-methylcytosine

In this series the target is UBE3A-ATS. The series can be described thus: mouse, dose not given. As to conditions: ASO.
On to “RNA1{[moe](G)[sp].[moe](A)p.[moe](G)p.[moe](A)p.[moe](A)p.d([m5C])[sp].d([m5C])[sp].d([m5C])[sp].d(A)[sp].d([m5C])[sp].d(T)[sp].d(T)[sp].d(G)[sp].d(A)[sp].d(T)[sp].[moe]([m5C])p.[moe](T)p.[moe](A)[sp].[moe](T)}$$$$ (last 3' nucleoside missing)”, for which the 3 h FOB score amounted to 3 score 0-7. The same measure for “RNA1{[moe]([m5C])[sp].[moe](G)p.[moe](T)p.[moe](G)p.[moe](A)p.[moe](G)p.d([m5C])[sp].d(T)[sp].d(A)[sp].d(T)[sp].d([m5C])[sp].d(T)[sp].d(G)[sp].d(T)[sp].d(A)[sp].d([m5C])[sp].[moe](A)p.[moe](A)[sp].[moe](A)}$$$$ (last 3' nucleoside missing)”: 1 score 0-7; for “RNA1{[moe](G)[sp].[moe](G)p.[moe](A)p.[moe](T)p.[moe](G)p.d(G)[sp].d(T)[sp].d(G)[sp].d(T)[sp].d(G)[sp].d(T)[sp].d(A)[sp].d(T)[sp].d(G)[sp].d(T)[sp].[moe](T)p.[moe](A)p.[moe](T)[sp].[moe](G)}$$$$ (last 3' nucleoside missing)”: 4.7 score 0-7; for “RNA1{[moe]([m5C])[sp].[moe]([m5C])p.[moe](T)p.[moe](A)p.[moe](T)p.d(A)[sp].d(G)[sp].d(G)[sp].d(T)[sp].d(G)[sp].d(G)[sp].d([m5C])[sp].d([m5C])[sp].d(T)[sp].d(T)[sp].[moe]([m5C])p.[moe](A)p.[moe](G)[sp].[moe](T)}$$$$ (last 3' nucleoside missing)”: 5 score 0-7.

“RNA1{[moe](A)[sp].[moe](T)p.[moe](T)p.[moe]([m5C])p.[moe](A)p.d(G)[sp].d(A)[sp].d(T)[sp].d(A)[sp].d([m5C])[sp].d(T)[sp].d(A)[sp].d(G)[sp].d(T)[sp].d(T)[sp].[moe](T)p.[moe](A)p.[moe]([m5C])[sp].[moe]([m5C])}$$$$ (last 3' nucleoside missing)” yielded a 3 h FOB score of 2.8 score 0-7. The same measure for “RNA1{[moe](G)[sp].[moe](A)p.[moe](T)p.[moe](T)p.[moe](T)p.d([m5C])[sp].d([m5C])[sp].d(T)[sp].d(T)[sp].d(A)[sp].d([m5C])[sp].d(T)[sp].d(G)[sp].d(A)[sp].d(G)[sp].[moe](T)p.[moe](G)p.[moe](A)[sp].[moe](G)}$$$$ (last 3' nucleoside missing)”: 1 score 0-7; for “RNA1{[moe]([m5C])[sp].[moe](T)p.[moe](A)p.[moe](A)p.[moe]([m5C])p.d(T)[sp].d(T)[sp].d(T)[sp].d(A)[sp].d(T)[sp].d(A)[sp].d(G)[sp].d(T)[sp].d(G)[sp].d(T)[sp].[moe](G)p.[moe](G)p.[moe](A)[sp].[moe](T)}$$$$ (last 3' nucleoside missing)”: 5 score 0-7; for “RNA1{[moe](T)[sp].[moe](A)p.[moe](G)p.[moe](G)p.[moe](T)p.[moe]([m5C])p.d(A)[sp].d(A)[sp].d([m5C])[sp].d([m5C])[sp].d(A)[sp].d(A)[sp].d(T)[sp].d(T)[sp].d(T)[sp].d(G)[sp].[moe]([m5C])p.[moe](T)[sp].[moe](A)}$$$$ (last 3' nucleoside missing)”: 5 score 0-7. Next, “RNA1{[moe](G)[sp].[moe](A)p.[moe](T)p.[moe]([m5C])[sp].d(A)[sp].d([m5C])[sp].d(A)[sp].d(T)[sp].d(T)[sp].d(A)[sp].d([m5C])[sp].d([m5C])[sp].[moe]([m5C])p.[moe](A)p.[moe](T)p.[moe]([m5C])[sp].[moe]([m5C])}$$$$ (last 3' nucleoside missing)”: 0 score 0-7; “RNA1{[moe](T)[sp].[moe](G)p.[moe](T)p.[moe](G)p.[moe](T)p.[moe](T)p.d(T)[sp].d(T)[sp].d(T)[sp].d([m5C])[sp].d([m5C])[sp].d(A)[sp].d(T)[sp].d(T)[sp].d(T)[sp].d(T)[sp].[moe](T)p.[moe]([m5C])[sp].[moe](T)}$$$$ (last 3' nucleoside missing)”: 0 score 0-7; “RNA1{[moe](G)[sp].[moe]([m5C])p.[moe](T)p.[moe](T)p.[moe](A)p.d(G)[sp].d(G)[sp].d([m5C])[sp].d(A)[sp].d(A)[sp].d(T)[sp].d(G)[sp].d(G)[sp].d(A)[sp].d([m5C])[sp].[moe](T)p.[moe](T)p.[moe](A)[sp].[moe](G)}$$$$ (last 3' nucleoside missing)”: 5.5 score 0-7. Next, “RNA1{[moe](G)[sp].[moe]([m5C])p.[moe](T)p.[moe](G)p.[moe](A)p.[moe](T)p.d([m5C])[sp].d(A)[sp].d([m5C])[sp].d(A)[sp].d(T)[sp].d(T)[sp].d(A)[sp].d([m5C])[sp].d([m5C])[sp].d([m5C])[sp].[moe](A)p.[moe](T)[sp].[moe]([m5C])}$$$$ (last 3' nucleoside missing)”: 0 score 0-7; “RNA1{[moe]([m5C])[sp].[moe](T)p.[moe](G)p.[moe]([m5C])p.d(T)[sp].d([m5C])[sp].d(A)[sp].d(G)[sp].d(T)[sp].d(T)[sp].d(A)[sp].d(G)[sp].d(G)[sp].d(T)[sp].[moe](T)p.[moe](A)p.[moe](G)p.[moe](T)[sp].[moe](G)}$$$$ (last 3' nucleoside missing)”: 4 score 0-7; “RNA1{[moe]([m5C])[sp].[moe](A)p.[moe](G)p.[moe](T)p.[moe](T)p.[moe](A)p.d(G)[sp].d(G)[sp].d(T)[sp].d(T)[sp].d(A)[sp].d(G)[sp].d(T)[sp].d(G)[sp].d([m5C])[sp].d(A)[sp].[moe]([m5C])p.[moe](A)[sp].[moe](G)}$$$$ (last 3' nucleoside missing)”: 5.2 score 0-7. Substance “RNA1{[moe](G)[sp].[moe](T)p.[moe](G)p.[moe](T)p.d(T)[sp].d(T)[sp].d(T)[sp].d(T)[sp].d([m5C])[sp].d([m5C])[sp].d(A)[sp].d(T)[sp].d(T)[sp].d(T)[sp].[moe](T)p.[moe](T)p.[moe]([m5C])p.[moe](T)[sp].[moe]([m5C])}$$$$ (last 3' nucleoside missing)” returned a 3 h FOB score of 0 score 0-7. Next, “RNA1{[moe](G)[sp].[moe]([m5C])p.[moe]([m5C])p.[moe](T)p.[moe](G)p.d([m5C])[sp].d(T)[sp].d([m5C])[sp].d(A)[sp].d(A)[sp].d(A)[sp].d(T)[sp].d([m5C])[sp].d(T)[sp].d(G)[sp].[moe]([m5C])p.[moe](G)p.[moe](A)[sp].[moe](A)}$$$$ (last 3' nucleoside missing)”: 2 score 0-7; “RNA1{[moe](G)[sp].[moe]([m5C])p.[moe](T)p.[moe](A)p.[moe](T)p.d(A)[sp].d([m5C])[sp].d([m5C])[sp].d([m5C])[sp].d([m5C])[sp].d(T)[sp].d(A)[sp].d(G)[sp].d(G)[sp].d(A)[sp].[moe](T)p.[moe]([m5C])p.[moe](A)[sp].[moe](G)}$$$$ (last 3' nucleoside missing)”: 3.8 score 0-7.

As for “RNA1{[moe](A)[sp].[moe]([m5C])p.[moe](G)p.[moe]([m5C])p.[moe](A)[sp].d(A)[sp].d(T)[sp].d(G)[sp].d(T)[sp].d(A)[sp].d(T)[sp].d([m5C])[sp].d(A)[sp].[moe](G)p.[moe](G)p.[moe]([m5C])[sp].[moe](A)}$$$$ (last 3' nucleoside missing)”, the 3 h FOB score amounted to 2.3 score 0-7. Next, “RNA1{[moe](T)[sp].[moe]([m5C])p.[moe](T)p.[moe]([m5C])p.[moe]([m5C])p.d(A)[sp].d(G)[sp].d(T)[sp].d(T)[sp].d(T)[sp].d(T)[sp].d([m5C])[sp].d(G)[sp].d([m5C])[sp].d([m5C])[sp].[moe]([m5C])p.[moe](G)p.[moe](T)[sp].[moe](T)}$$$$ (last 3' nucleoside missing)”: 4.7 score 0-7. In turn, “RNA1{[moe](T)[sp].[moe]([m5C])p.[moe](A)p.[moe](T)p.d([m5C])[sp].d(T)[sp].d([m5C])[sp].d(G)[sp].d(G)[sp].d(G)[sp].d(T)[sp].d(A)[sp].d(T)[sp].d(A)[sp].[moe](T)p.[moe](A)p.[moe](A)p.[moe](A)[sp].[moe](T)}$$$$ (last 3' nucleoside missing)” registered a 3 h FOB score of 4 score 0-7. Next, “RNA1{[moe]([m5C])[sp].[moe]([m5C])p.[moe](A)p.[moe](G)p.[moe](G)p.d(T)[sp].d(G)[sp].d(T)[sp].d([m5C])[sp].d(T)[sp].d(T)[sp].d(A)[sp].d(T)[sp].d(A)[sp].d(T)[sp].[moe]([m5C])p.[moe](T)p.[moe](A)[sp].[moe](T)}$$$$ (last 3' nucleoside missing)”: 1 score 0-7; “RNA1{[moe](T)[sp].[moe](G)p.[moe](G)p.[moe](T)p.[moe]([m5C])p.[moe](A)p.d(T)[sp].d([m5C])[sp].d(T)[sp].d([m5C])[sp].d(G)[sp].d(G)[sp].d(G)[sp].d(T)[sp].d(A)[sp].d(T)[sp].[moe](A)p.[moe](T)[sp].[moe](A)}$$$$ (last 3' nucleoside missing)”: 6 score 0-7; “RNA1{[moe](A)[sp].[moe](G)p.[moe]([m5C])p.[moe]([m5C])p.[moe](A)[sp].d(G)[sp].d(G)[sp].d(T)[sp].d(G)[sp].d(T)[sp].d([m5C])[sp].d(T)[sp].d(T)[sp].[moe](A)p.[moe](T)p.[moe](A)[sp].[moe](T)}$$$$ (last 3' nucleoside missing)”: 6 score 0-7. The same measure for “RNA1{[moe](T)[sp].[moe]([m5C])p.[moe](A)p.[moe](T)p.[moe]([m5C])[sp].d(T)[sp].d([m5C])[sp].d(G)[sp].d(G)[sp].d(G)[sp].d(T)[sp].d(A)[sp].d(T)[sp].[moe](A)p.[moe](T)p.[moe](A)[sp].[moe](A)}$$$$ (last 3' nucleoside missing)”: 3 score 0-7. The same measure for “RNA1{[moe](G)[sp].[moe](T)p.[moe]([m5C])p.[moe](A)p.[moe](T)[sp].d([m5C])[sp].d(T)[sp].d([m5C])[sp].d(G)[sp].d(G)[sp].d(G)[sp].d(T)[sp].d(A)[sp].[moe](T)p.[moe](A)p.[moe](T)[sp].[moe](A)}$$$$ (last 3' nucleoside missing)”: 4.3 score 0-7. “RNA1{[moe](T)[sp].[moe](T)p.[moe]([m5C])p.[moe](A)p.[moe]([m5C])p.d([m5C])[sp].d(A)[sp].d(T)[sp].d(T)[sp].d(T)[sp].d(T)[sp].d(G)[sp].d(A)[sp].d([m5C])[sp].d([m5C])[sp].[moe](T)p.[moe](T)p.[moe]([m5C])[sp].[moe](T)}$$$$ (last 3' nucleoside missing)” displayed a 3 h FOB score of 1 score 0-7.
